Results reported in PMC4640066 (Nature Communications, 2015).

Assays:
[1] = biological target: T1, porcine brain α/β-tubulin (Sus scrofa, UniProt P02550+P02554); assay: In vitro MT polymerization assay (glutamate, paclitaxel or Tau stimulated); assay type: biochemical; conditions: absence of γ-tubulin; absorbance at 350 nm, 37 °C
T1 construct: α/β-Tubulin was purified from porcine brain; from tissue; host or cells: porcine brain
Description: For glutamate-stimulated MT polymerization, 1 mg ml^−1 porcine brain α/β-tubulin was mixed with glutamate (final concentration 1 M) and GTP (final concentration 1 mM) in RB buffer on ice. For paclitaxel-stimulated MT polymerization, 1 mg ml^−1 porcine brain α/β-tubulin was mixed with paclitaxel (final concentration 10 μM) and GTP (final concentration 1 mM) in RB buffer on ice. For recombinant Tau protein-stimulated MT polymerization, 1 mg ml^−1 α/β-tubulin purified from porcine brain and Tau protein were mixed with GTP (final concentration 1 mM) in RB buffer on ice. For γ-TuSC-stimulated MT polymerization, γ-TuSC was mixed with GTP (final concentration 1 mM). One of the compounds and α/β-tubulin were then added. Samples were transferred into cuvettes. Tubulin polymerization was monitored using the absorbance at 350 nm at 37 °C using a thermostatic spectrophotometer (Beckman Coulter).

[2] = test system: HeLa cells; assay: Bipolar spindle establishment after STLC washout; assay type: cell-based, human; conditions: 30 μM, 2 h after STLC washout
Description: To analyse bipolar spindle establishment from monopolar spindles, HeLa cells were arrested at prometaphase with 10 μM of STLC for 15 h. STLC was removed by washing cells with the medium three times. After treatment with 1% DMSO or 30 μM of gatastatin for 2 h, cells were immediately fixed with cold MeOH (−20 °C).
Immunostaining was performed as described above using anti-α-tubulin (1:250 dilution, Santa Cruz, Cat# sc-32293) and anti-pericentrin (1:250 dilution, Abcam, Cat# ab4448) antibodies. Spindle structure was observed under a Leica LAS AF 6000 fluorescence microscope (Leica Microsystems). The measurement of spindle length was performed as described above.

[3] = test system: HeLa cells; assay: MT nucleation (regrowth) assay, HeLa cells; assay type: cell-based, human; conditions: 30 μM, MT regrowth 1 min, EB1 area
Description: HeLa and U2OS cells were cultured in DMEM+GlutaMAX (Gibco) supplemented with 10% fetal bovine serum (FBS), 100 U ml^−1 penicillin, 100 μg ml^−1 streptomycin and 1 mM sodium pyruvate in a humidified atmosphere containing 5% CO2. RPE-1 cells were cultured in DMEM/F-12 (Gibco) supplemented with 10% FBS, 2 mM L-glutamine, 100 U ml^−1 penicillin, 100 μg ml^−1 streptomycin, 1 mM sodium pyruvate containing 10% FBS in a humidified atmosphere containing 5% CO2.
To depolymerize MTs, interphase cells were treated with 10 μM of nocodazole for 3 h, washed with cold medium and incubated on ice for 1 h. Mitotic cells were treated with 10 μM of STLC for 6 h, washed with cold medium and incubated on ice for 1 h. Subsequently, both cells were incubated in medium containing 1% DMSO or 30 μM of gatastatin for 10 min on ice. Cells were then put in warmed medium containing either 1% DMSO or 30 μM of gatastatin and were incubated at 37 °C (interphase cells) or 20 °C (mitotic cells) for 1 min. The cells were immediately fixed with cold MeOH (−20 °C).
After blocking with PBS containing 0.5% bovine serum albumin, cells were incubated with anti-EB1 antibody (1:500 dilution, Abcam, Cat# ab53358), anti-α-tubulin antibody (1:500 dilution, Sigma, Cat# T9026) and anti-pericentrin antibody (1:2,000 dilution, Abcam, Cat# ab4448). […]

[4] = test system: HeLa cells; assay: Transition from S phase to mitotic entry and spindle formation; assay type: cell-based, human; conditions: 30 μM
Description: Cells expressing EGFP-α-tubulin and mCherry-H2B were prepared as described previously. Cells were arrested at the S phase with 2-mM thymidine treatment for 15 h. To determine the time required for mitotic entry from S phase release, thymidine was removed by washing cells with PBS three times. After treatment with 30 μM gatastatin for 9 h, time-lapse analysis was performed using DeltaVision Olympus IX71 microscope (Applied Precision) equipped with CoolSNAP HQ camera (Photometrics). Images were taken every 6 min with 12 z-stack (1 μm per stack). During live cell imaging, cells were maintained at 37 °C and were supplied with 5% CO2. The timing of the mitotic entry was defined by the chromosome condensation after nuclear envelope breakdown.

[5] = test system: HeLa cells; assay: Anaphase spindle elongation, time-lapse anaphase duration; assay type: cell-based, human; conditions: 30 μM, after MG132 washout, 1 μM reversine, control 18.6 min
Description: HeLa cells expressing mCherry-H2B and EGFP-α-tubulin, HeLa ‘Kyoto' cell line stably expressing CEP55-LAPtag (a kind gift from Dr A.A. Hyman) and HeLa cells expressing RFP-H2B and GFP-LifeAct (a kind gift from Dr J. Ellenberg) were cultured in DMEM+GlutaMAX (Gibco) supplemented with 10% FBS, 100 U ml^−1 penicillin, 100 μg ml^−1 streptomycin and 1 mM sodium pyruvate in a humidified atmosphere containing 5% CO2. To observe the transition from metaphase to anaphase, telophase and cytokinesis, cells were arrested at metaphase by sequential treatment of STLC and MG132. After MG132 removal by washing of cells with medium three times, the medium was changed to Live Cell Imaging Solution (Molecular Probes Life Technologies) supplemented as described above containing 1 μM of MPS1 inhibitor reversine and either DMSO or 30 μM of gatastatin. Time-lapse observation was performed at 37 °C using the DeltaVision Olympus IX71 microscope (Applied Precision) equipped with CoolSNAP HQ camera (Photometrics). Images were taken every 3 min with 12 z-stacks (1 μm per stack) for 3 h. The anaphase duration (between chromosome separation and start of midbody formation) was calculated.

T1 sequence (P02550 whole entry): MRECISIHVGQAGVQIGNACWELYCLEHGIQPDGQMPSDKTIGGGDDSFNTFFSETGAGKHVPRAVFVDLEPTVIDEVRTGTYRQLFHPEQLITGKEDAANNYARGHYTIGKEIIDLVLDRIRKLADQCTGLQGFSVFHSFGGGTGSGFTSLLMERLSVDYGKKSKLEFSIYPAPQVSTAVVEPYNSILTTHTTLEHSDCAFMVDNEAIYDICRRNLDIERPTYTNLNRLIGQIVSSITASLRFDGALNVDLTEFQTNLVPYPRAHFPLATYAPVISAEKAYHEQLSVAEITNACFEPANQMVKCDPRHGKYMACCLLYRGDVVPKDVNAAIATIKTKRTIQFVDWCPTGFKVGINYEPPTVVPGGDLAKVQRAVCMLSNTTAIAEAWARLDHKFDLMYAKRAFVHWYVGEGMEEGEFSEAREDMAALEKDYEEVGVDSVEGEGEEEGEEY
T1 sequence (P02554 whole entry): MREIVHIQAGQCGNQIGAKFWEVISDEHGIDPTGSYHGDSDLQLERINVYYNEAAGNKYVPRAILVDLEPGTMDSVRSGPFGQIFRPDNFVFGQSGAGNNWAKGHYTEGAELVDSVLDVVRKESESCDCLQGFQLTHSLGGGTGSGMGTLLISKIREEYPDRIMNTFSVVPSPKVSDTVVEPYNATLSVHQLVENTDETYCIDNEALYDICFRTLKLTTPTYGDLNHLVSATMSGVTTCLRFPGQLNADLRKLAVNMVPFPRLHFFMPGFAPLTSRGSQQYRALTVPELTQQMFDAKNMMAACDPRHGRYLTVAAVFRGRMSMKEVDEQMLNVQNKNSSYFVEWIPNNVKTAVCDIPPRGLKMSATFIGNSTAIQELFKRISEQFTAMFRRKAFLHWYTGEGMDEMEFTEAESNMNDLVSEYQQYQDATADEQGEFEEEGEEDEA

SMILES: COc1cc2c(=O)c(-c3cc(OC)c4c(c3OC)OCO4)coc2cc1OCc1ccccc1 [Gatastatin, O^7-demethylbenzyl AG1]
- Effect on MT polymerization in vitro induced by glutamate, paclitaxel or recombinant Tau protein [1]: failed to impair MT polymerization in vitro
- Cells unable to assemble a metaphase-like spindle on STLC washout [2]: 87%
- Effect on MT nucleation activity of interphase and mitotic centrosomes [3]: inhibited MT nucleation activity
- Mitotic cells with abnormal bipolar spindles with misaligned chromosomes ([4]; HeLa cells released from S phase (thymidine)): ~80%
- Timing of mitotic entry versus DMSO ([4]; HeLa released from S phase): virtually identical
- Anaphase duration [5]: 32.4 min
